Data set [1] relates to ALS patient-derived fibroblasts. The data set is described as follows: Degree of cell damage of ALS patient-derived fibroblasts treated with BSO 500 μmol/L, Method 2, LDH Cytotoxicity Detection Kit. The following applies: 500 μmol/L BSO; compound at 0.1, 0.3, 1, 3 and 10 μmol/L; three days with compound; FIG. 2. The format is cell-based. Here is the method:
(§1) ALS patient-derived fibroblasts can be used to confirm the inhibitory effect of the compound of the present invention on cell death induced by treating the ALS patient-derived fibroblasts with the glutathione synthesis inhibitor, L-buthionine(S, R)sulfoximine (BSO).
(§2) 3.0×10^3 Cells per well of ALS patient-derived fibroblasts were seeded in a 96-well cell culture plate using a DMEM (low glucose) medium containing 1% FBS. One day after cell seeding, BSO was mixed in the culture medium so that the concentration thereof is 500 μmol/L. After culturing in the presence of BSO for one day, the compound of Example 1 was mixed in the culture medium so that the concentration thereof is 0.1, 0.3, 1, 3 or 10 μmol/L. After culturing in the presence of the compound for another three days, the number of living cells in each well was counted by using Cell Counting Kit-8 (manufactured by Dojindo Laboratories) to calculate cell viability. In addition, the degree of cell damage was measured by using LDH Cytotoxicity Detection Kit (manufactured by Takara Bio Inc.). Here, wells to which both BSO and the compound were not added but distilled water and DMSO that were solvents for BSO and the compound, respectively were added were used as a control of the oxidative stress loading; wells to which both BSO and the compound were added were used as a control for the effect of the test compound.

In a further data set the test system is wobbler mice. The experiment in a line: Rotarod test in ALS animal models (wobbler mice). The format is in vivo. The following applies: 150 mg/kg orally once a day, 16 days after administration start, 10 rpm, n=14; control group 43%; P=0.018. Here is the method: To 4-week-old wobbler mice, the compound of Example 1 (150 mg/kg) or a solvent, a 0.5% aqueous solution of methyl cellulose as a control was orally administered at a rate of 10 mL/kg once a day. Sixteen days after administration start date, the animals were placed on a mouse rotarod (manufactured by Muromachi Kikai Co., Ltd.) set at a rotation speed of 10 rpm and the time to fall was measured (rotarod test). The rotarod walking time was measured three times, and the upper limit of one measurement time was 300 seconds.
(Falling from the rotarod earlier than controls is read as motor impairment.)

For data set [2], the system named is ALS patient-derived fibroblasts. The data set is described as follows: Cell viability of ALS patient-derived fibroblasts treated with BSO 500 μmol/L, Method 2, Cell Counting Kit-8. The format is cell-based. Conditions: 500 μmol/L BSO; compound at 0.1, 0.3, 1, 3 and 10 μmol/L; three days with compound; FIG. 2. The method, then: as §1, §2
In general terms: Tetrazolium assays rely on reduction of a dye to a coloured formazan, in cell work by metabolically active cells.

For data set [3] the test system is unchanged. The experiment in a line: Inhibitory effect on cell death of ALS patient-derived fibroblasts induced by oxidative stress (BSO 100 μmol/L), Method 1, Cell Counting Kit-8. The format is cell-based. The following applies: 100 μmol/L BSO; compound at 10 and 30 μmol/L; two days with compound; FIG. 1. The method, then:
as §1
6.4×10^3 Cells per well of ALS patient-derived fibroblasts were seeded in a 96-well cell culture plate using a DMEM medium containing 1% FBS. One day after cell seeding, BSO was mixed in the culture medium so that the concentration thereof was 100 μmol/L. After culturing in the presence of BSO for one day, the compound of Example 1 was mixed in the culture medium so that the concentration thereof is 1, 3, 10 or 30 μmol/L. After culturing in the presence of the compound for another two days, the number of living cells in each well was counted by using Cell Counting Kit-8 (manufactured by Dojindo Laboratories) to calculate cell viability. Here, wells to which both BSO and the compound were not added but distilled water and DMSO that were solvents for BSO and the compound, respectively were added were used as a control of the oxidative stress loading; wells to which both BSO and the compound were added were used as a control for the effect of the test compound.

We go through 1 compound from patent US10869858B2, “Therapeutic agent for amyotrophic disorders” (TOHOKU UNIVERSITY, priority 2015, dated 2020).

For `O=C(CC(C(=O)O)c1c[nH]c2ccccc12)c1ccc(F)cc1F` (stereo not shown) [Example 1, 4-(2,4-difluorophenyl)-2-(1H-indol-3-yl)-4-oxobutanoic acid], the “prevention of cytotoxicity (degree of cell damage, LDH) induced by BSO” value in data set [1] is on record as “statistically significantly prevented”. For the same compound, in the data set with wobbler mice, the “occurrence ratio of animals whose rotarod walking time exceeded 300 seconds” value was found to be 86%. Besides, in data set [2], the “prevention of low cell viability induced by BSO” value is “statistically significantly prevented the low cell viability”. Also, in data set [3], the “inhibition of cell death induced by BSO (cell viability)” value is “statistically significantly inhibited cell death”.
